We go through 13 compounds from ChEMBL document CHEMBL1201862, “PubChem BioAssay data set” (2004).

Each structure is given as a SMILES string.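 96-well plates; 48 h exposure; 5 concentrations. Endpoints by linear interpolation between flanking doses. Not reached: highest tested concentration assigned. GI50 marks 50% less growth.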 Calls of active or inactive are those of the source. Rule as the data show it: active = GI50 up to about 1.1 µM and inactive = higher.

Holding throughout (test): DTP human tumour cell line panel, 48 h
The test system of experiment [1] is SF-539.
Experiment [2] concerns SK-MEL-28.
Experiment [3] concerns K562.
Experiment [4] relates to OVCAR-3.
Experiment [5] has as its system A498.
In experiment [6] the test system is SN12C.
Experiment [7] has as its system CCRF-CEM.
Experiment [8] deals with LOX IMVI.
The subject of experiment [9] is OVCAR-8.
The subject of experiment [10] is HCC 2998.
In experiment [11] the test system is 786-0.
Experiment [12] deals with HOP-62.
Experiment [13] deals with SNB-75.
Experiment [14] relates to HL-60.
For experiment [15], the system named is CAKI-1.
In experiment [16] the test system is SR.

One may read the GI50 as the concentration at which growth is held to half of that of the control.

`COc1cc2cc(OC(C)=O)c3cc4c(cc3c2c(OC)c1OC)OCO4`: the GI50 in experiment [1], in [2], in experiment [3], in [4], in experiment [5] and in experiment [6] was > 100 µM (inactive) throughout. For the same compound, the GI50 in experiment [7], in [8], in experiment [9], in experiment [10], in [11] and in experiment [12] was > 100 µM (inactive) each time. Also, the GI50 in [13] and in experiment [14] was > 100 µM (inactive) in each case.

As for `CC1(C)C(c2ccccc2)C12CCC1(C2=O)C(c2ccccc2)C1(C)C` (configuration not stated), the GI50 in experiment [15] is 23.1 µM (inactive); in experiment [1], 26.8 µM (inactive); in experiment [2] it was 27.2 µM (inactive); in [3], 20 µM (inactive); in [4] it was 19.9 µM (inactive); in experiment [5] it was 34.6 µM (inactive). The GI50 in experiment [6] was 27.1 µM (inactive); in experiment [7], 18.9 µM (inactive); in [8], 20.2 µM (inactive); in [9], 34.1 µM (inactive); in experiment [10], 18.4 µM (inactive); in experiment [11] it was 25.2 µM (inactive). Besides, the GI50 in experiment [12] was 26.1 µM (inactive); in [13], 30.4 µM (inactive); in [14], 20.1 µM (inactive).

For `Cc1cc(Cl)ccc1NC(=O)CC1SC(N)=NC1=O` (configuration not stated), the GI50 in experiment [15] was > 100 µM (inactive); in [1], > 100 µM (inactive); in experiment [2], > 100 µM (inactive); in [3], > 100 µM (inactive); in experiment [4] it was > 100 µM (inactive); in [5], 17.7 µM (inactive). For the same compound, the GI50 in experiment [6] is > 100 µM (inactive); in experiment [7], 66.4 µM (inactive); in experiment [8], > 100 µM (inactive); in experiment [9], > 100 µM (inactive); in experiment [10], > 100 µM (inactive); in experiment [11], > 100 µM (inactive). Also, the GI50 in experiment [12], in experiment [13] and in experiment [14] was > 100 µM (inactive) each time.

`Nc1nc2ncn(CCO)c2c(=S)[nH]1`: the GI50 in experiment [15], in experiment [1], in experiment [2], in experiment [3], in [4] and in experiment [5] was > 100 µM (inactive) each time. Also, the GI50 in experiment [6], in experiment [7], in [8], in experiment [9], in experiment [10] and in experiment [11] was > 100 µM (inactive) each time. Moreover, the GI50 in [12], in experiment [13] and in [14] was > 100 µM (inactive) throughout.

`CC(C)CC(=O)N1CCN(C(=O)CC(C)C)c2ccccc21`: the GI50 in [1], in experiment [2], in experiment [3], in experiment [4], in experiment [5] and in experiment [7] was > 100 µM (inactive) in each case. The GI50 in [8], in experiment [9], in experiment [10], in experiment [11], in experiment [12] and in experiment [13] was > 100 µM (inactive) in each case. For the same compound, the GI50 in [14] was > 100 µM (inactive).

Turning to `O=C1[C@@H](c2ccc(Cl)cc2)[C@H]2CC=C[C@H]2N1O`, the GI50 in experiment [15], in experiment [1], in [2], in [3], in [4] and in [6] was > 100 µM (inactive) each time. The GI50 in experiment [7] is 51.2 µM (inactive); in experiment [8], > 100 µM (inactive); in [9] it was > 100 µM (inactive); in experiment [10] it was 52.8 µM (inactive); in experiment [11], > 100 µM (inactive); in experiment [12] it was > 100 µM (inactive). Further, the GI50 in experiment [13] and in experiment [14] was > 100 µM (inactive) in each case.

As to `CCc1cccc(C)c1NC(=O)NS(=O)(=O)c1ccc(C)cc1`, the GI50 in experiment [15], in experiment [1], in [2], in experiment [3], in experiment [4] and in experiment [5] was > 100 µM (inactive) in each case. Moreover, the GI50 in [6], in [7], in experiment [8], in experiment [9], in experiment [10] and in [11] was > 100 µM (inactive) each time. In addition, the GI50 is > 100 µM (inactive) in experiment [12], 35.2 µM (inactive) in [13] and > 100 µM (inactive) in experiment [14].

On to `CC1=C2C(c3ccccc3)(c3ccccc3)C3C=CC2(C=N3)N(C(=O)NC2CCCCC2)C1=O` (configuration not stated), for which the GI50 is 12.6 µM (inactive) in experiment [15]; 15.9 µM (inactive) in experiment [1]; 16.7 µM (inactive) in experiment [2]; 17.5 µM (inactive) in experiment [3]; 14.8 µM (inactive) in [4]; 17.5 µM (inactive) in [5]. Moreover, the GI50 in [6] was 17.6 µM (inactive); in [16], 17.1 µM (inactive); in experiment [7], 16.5 µM (inactive); in [8], 15.7 µM (inactive); in [9] it was 17.9 µM (inactive); in experiment [10], 17.9 µM (inactive). For the same compound, the GI50 is 15.4 µM (inactive) in experiment [11], 17.5 µM (inactive) in [12] and 14.7 µM (inactive) in experiment [14].

On to `CSc1nc2c(c(O)c(C)c(=O)n2C2OC(COC(C)=O)C(OC(C)=O)C(OC(C)=O)C2OC(C)=O)c(=O)n1C` (configuration not stated), for which the GI50 in experiment [15], in experiment [1], in experiment [2], in experiment [3], in experiment [4] and in [5] was > 100 µM (inactive) throughout. Also, the GI50 in experiment [6], in experiment [7], in experiment [8], in experiment [9], in [10] and in experiment [11] was > 100 µM (inactive) throughout. Moreover, the GI50 in experiment [12], in experiment [13] and in experiment [14] was > 100 µM (inactive) each time.

`Cc1ccc(C2=C(c3ccccc3)C(O)(c3ccccc3)C(c3ccccc3)=C2c2ccc(C)cc2)cc1`: the GI50 in experiment [1], in [2], in experiment [3], in experiment [5], in [6] and in [16] was > 100 µM (inactive) in each case. The GI50 is > 10 µM (inactive) in experiment [7]; > 100 µM (inactive) in [9]; > 100 µM (inactive) in [10]; > 100 µM (inactive) in experiment [11]; > 100 µM (inactive) in experiment [12]; > 100 µM (inactive) in experiment [13].

For the compound `O=[N+]([O-])c1c(/C=N/c2ccccc2)oc(-c2ccc3c(c2)OCO3)c1-c1ccc2c(c1)OCO2`, the GI50 in [15], in experiment [1], in experiment [2], in experiment [3], in experiment [4] and in experiment [6] was > 100 µM (inactive) each time. The GI50 in experiment [16], in experiment [8], in experiment [9], in [10], in [11] and in [12] was > 100 µM (inactive) in each case. Also, the GI50 in [13] was 50.2 µM (inactive); in experiment [14] it was > 100 µM (inactive).

As to `O=C(O)COc1ccc(C(=O)/C(SS/C(C(=O)c2ccc(OCC(=O)O)c(Cl)c2Cl)=C2\C=C(c3ccc(Cl)cc3)SS2)=C2/C=C(c3ccc(Cl)cc3)SS2)c(Cl)c1Cl`, the GI50 in experiment [15] was 28.1 µM (inactive); in [1], 5.9 µM (inactive); in experiment [2] it was 25.2 µM (inactive); in experiment [3], 2.43 µM (inactive); in experiment [4], 5.37 µM (inactive); in experiment [5] it was 31.1 µM (inactive). Also, the GI50 is 0.319 µM (active) in experiment [6]; 2.29 µM (inactive) in experiment [7]; 3.93 µM (inactive) in [8]; 5.85 µM (inactive) in experiment [9]; 12.4 µM (inactive) in experiment [10]; 13.5 µM (inactive) in experiment [11]. Further, the results for the GI50 in experiment [12], in [13] and in experiment [14] were 39.8 µM (inactive), 11.1 µM (inactive) and 0.252 µM (active), respectively.

With `CN(C)c1ccc(Cc2cc(C(C)(C)C)cc(C(C)(C)C)c2O)cc1`, the GI50 in experiment [15] is 19.1 µM (inactive); in experiment [1], 20.8 µM (inactive); in experiment [2], 20.3 µM (inactive); in experiment [3] it was 11.7 µM (inactive); in [5], 18.2 µM (inactive); in experiment [6] it was 16.1 µM (inactive). Besides, the GI50 in experiment [16] was 14.6 µM (inactive); in experiment [7], 60.1 µM (inactive); in [8], 10.6 µM (inactive); in experiment [9] it was 20 µM (inactive); in experiment [10], 19.6 µM (inactive); in experiment [11] it was 18.5 µM (inactive). Moreover, the GI50 in experiment [12] was 20.9 µM (inactive); in experiment [13], 31.2 µM (inactive); in experiment [14], 21 µM (inactive).
